Our source for the IC50 values is the Kinase Knowledgebase extract (Sharma et al. 2016).

In general, IC50 refers to the point on the concentration scale where inhibition reaches its midpoint. A higher IC50 goes with weaker potency in that assay.

For this assay, the target named is ROCK2 (human) (UniProt O75116). The assay is described as follows: Inhibition of ROCK2 Kinase Activity.
ROCK2 (human), sequence (O75116 whole entry, looked up): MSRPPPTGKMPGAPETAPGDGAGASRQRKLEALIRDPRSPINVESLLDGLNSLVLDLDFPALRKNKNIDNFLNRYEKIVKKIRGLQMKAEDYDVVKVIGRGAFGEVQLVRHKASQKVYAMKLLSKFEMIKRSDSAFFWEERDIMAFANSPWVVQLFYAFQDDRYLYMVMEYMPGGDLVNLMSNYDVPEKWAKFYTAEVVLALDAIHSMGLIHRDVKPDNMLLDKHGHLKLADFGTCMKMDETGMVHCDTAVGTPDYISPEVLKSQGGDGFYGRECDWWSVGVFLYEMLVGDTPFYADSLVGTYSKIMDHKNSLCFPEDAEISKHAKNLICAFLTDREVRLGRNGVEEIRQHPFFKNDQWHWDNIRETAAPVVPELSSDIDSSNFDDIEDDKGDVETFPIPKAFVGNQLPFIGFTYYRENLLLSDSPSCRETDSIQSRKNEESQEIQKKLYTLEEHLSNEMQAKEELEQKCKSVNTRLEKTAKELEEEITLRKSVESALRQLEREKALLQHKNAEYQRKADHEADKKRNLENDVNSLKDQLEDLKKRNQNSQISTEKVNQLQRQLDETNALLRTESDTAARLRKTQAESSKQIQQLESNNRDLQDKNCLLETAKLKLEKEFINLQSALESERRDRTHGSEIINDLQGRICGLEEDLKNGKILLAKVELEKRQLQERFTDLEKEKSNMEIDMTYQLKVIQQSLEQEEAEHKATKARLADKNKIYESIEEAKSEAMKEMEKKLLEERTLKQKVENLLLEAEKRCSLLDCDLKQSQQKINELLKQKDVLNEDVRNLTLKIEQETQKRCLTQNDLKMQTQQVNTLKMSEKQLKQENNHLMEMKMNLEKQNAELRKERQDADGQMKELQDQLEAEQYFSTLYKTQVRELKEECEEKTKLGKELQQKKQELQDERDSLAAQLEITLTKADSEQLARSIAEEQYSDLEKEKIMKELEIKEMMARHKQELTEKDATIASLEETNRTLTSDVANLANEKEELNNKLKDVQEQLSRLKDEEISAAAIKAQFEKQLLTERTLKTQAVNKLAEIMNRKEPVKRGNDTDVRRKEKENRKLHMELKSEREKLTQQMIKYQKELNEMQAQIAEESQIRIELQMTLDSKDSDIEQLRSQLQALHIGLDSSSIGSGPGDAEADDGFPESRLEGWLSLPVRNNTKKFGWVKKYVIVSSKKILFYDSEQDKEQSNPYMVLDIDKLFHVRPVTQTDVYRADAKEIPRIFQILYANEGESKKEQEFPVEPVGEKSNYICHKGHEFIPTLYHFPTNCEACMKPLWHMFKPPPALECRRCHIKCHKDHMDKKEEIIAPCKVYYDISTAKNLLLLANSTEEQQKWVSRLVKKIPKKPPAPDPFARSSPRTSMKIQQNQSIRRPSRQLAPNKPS
With `CN(CC(N)c1ccc(C(=O)Nc2ccncc2)cc1)C(=O)C1CCOc2ccc(F)cc21` (stereo not given), the IC50 was 500 to 5000 nM.

In the case of `NC(CC(=O)NCc1ccc(Br)cc1F)c1ccc(C(=O)Nc2ccncc2)cc1` (stereo not given), the IC50 is 50 to 500 nM.

On to `N[C@@H](CNC(=O)C1(c2ccc(F)cc2)CCCC1)c1ccc(C(=O)Nc2ccncc2)cc1`, for which the IC50 fell in the range of 500 to 5000 nM.

For the compound `CCCC(=O)NCC(N)c1ccc(C(=O)Nc2ccncc2)cc1` (stereo not given), the IC50 lay within 500 to 5000 nM.

In turn, `COc1ccc(CC(=O)N(C)CC(N)c2ccc(C(=O)Nc3ccncc3)cc2)c(OC)c1` (stereo not given) showed an IC50 of 50 to 500 nM.

`NC(c1ccc(C(=O)Nc2ccncc2)cc1)C1CCCN1C(=O)Cc1ccc(-c2ccccc2)cc1` (stereo not given): the IC50 fell in the range of 500 to 5000 nM.

For `Cc1cccc(CNC(=O)CC(N)c2ccc(C(=O)Nc3ccncc3)cc2)c1` (stereo not given), the IC50 fell in the range of 50 to 500 nM.

As for `CN(CC(N)c1ccc(C(=O)Nc2ccncc2)cc1)C(=O)C1(c2ccc(Cl)cc2)CCC1` (stereo not given), the IC50 was in the range of 500 to 5000 nM.

Take `NC(CC(=O)NCCN1CCOCC1)c1ccc(C(=O)Nc2ccncc2)cc1` (stereo not given): the IC50 fell in the range of 50 to 500 nM.

In turn, `NC(CNC(=O)c1cccc(Oc2ccccc2)c1)c1ccc(C(=O)Nc2ccncc2)cc1` (stereo not given) gave an IC50 of 500 to 5000 nM.

For `NC(CNC(=O)c1cccc(Br)c1)c1ccc(C(=O)Nc2ccncc2)cc1` (stereo not given), the IC50 is 500 to 5000 nM.

`NC(c1ccc(C(=O)Nc2ccncc2)cc1)C1CCCN1C(=O)Cc1c(F)cccc1Cl` (stereo not given) returned an IC50 of 500 to 5000 nM.

In the case of `CN(CC(N)c1ccc(C(=O)Nc2ccncc2)cc1)C(=O)Cc1ccccc1F` (stereo not given), the IC50 fell in the range of 500 to 5000 nM.

In the case of `N[C@H](CC(=O)N[C@H]1CCCc2ccccc21)c1ccc(C(=O)Nc2ccncc2)cc1`, the IC50 lay in the range of 50 to 500 nM.

`NC(c1ccc(C(=O)Nc2ccncc2)cc1)C1CCCN1C(=O)Cc1cccc(F)c1F` (stereo not given) registered an IC50 of 500 to 5000 nM.

Regarding `NC(CNC(=O)c1ccccc1Oc1ccccc1)c1ccc(C(=O)Nc2ccncc2)cc1` (stereo not given), the IC50 was 500 to 5000 nM.

In turn, `CN(CC(N)c1ccc(C(=O)Nc2ccncc2)cc1)C(=O)Cc1ccc(O)c([N+](=O)[O-])c1` (stereo not given) came in with an IC50 of 50 to 500 nM.

Consider `NC(c1ccc(C(=O)Nc2ccncc2)cc1)C1CCCN1C(=O)C1(c2ccc(F)c(F)c2)CCC1` (stereo not given), for which the IC50 lay in the range of 500 to 5000 nM.

`Cn1cccc1C(=O)NCC(N)c1ccc(C(=O)Nc2ccncc2)cc1` (stereo not given) had an IC50 of 500 to 5000 nM.

`CC(C)(C(=O)N1CCCC1C(N)c1ccc(C(=O)Nc2ccncc2)cc1)c1ccc(F)c(Cl)c1` (stereo not given): the IC50 was in the range of 500 to 5000 nM.

Consider `NC(CC(=O)NCc1cccc(OC(F)(F)F)c1)c1ccc(C(=O)Nc2ccncc2)cc1` (stereo not given), for which the IC50 lay within 50 to 500 nM.

Take `NC(CC(=O)NCCc1ccc(Oc2ccccc2)cc1)c1ccc(C(=O)Nc2ccncc2)cc1` (stereo not given): the IC50 was 50 to 500 nM.

`CC[C@@H](NC(=O)CC(N)c1ccc(C(=O)Nc2ccncc2)cc1)c1ccccc1` (stereo not given in full) gave an IC50 of 50 to 500 nM.

In turn, `CN(CC(N)c1ccc(C(=O)Nc2ccncc2)cc1)C(=O)Cc1csc(-c2ccccc2)n1` (stereo not given) yielded an IC50 of 500 to 5000 nM.

Turning to `NC(CNC(=O)c1ccc2[nH]nnc2c1)c1ccc(C(=O)Nc2ccncc2)cc1` (stereo not given), the IC50 lay within 500 to 5000 nM.

`NC(CC(=O)NC(Cc1ccccc1)c1ccccc1)c1ccc(C(=O)Nc2ccncc2)cc1` (stereo not given) yielded an IC50 of 50 to 500 nM.

`NC(CC(=O)NCCc1ccc(C(F)(F)F)cc1)c1ccc(C(=O)Nc2ccncc2)cc1` (stereo not given) displayed an IC50 of 50 to 500 nM.

Turning to `CCCCCCCCC(=O)NCC(N)c1ccc(C(=O)Nc2ccncc2)cc1` (stereo not given), the IC50 lay within 50 to 500 nM.

In the case of `NC(CNC(=O)CC1CCCCC1)c1ccc(C(=O)Nc2ccncc2)cc1` (stereo not given), the IC50 fell in the range of 500 to 5000 nM.

In the case of `CONC(=O)CC(N)c1ccc(C(=O)Nc2ccncc2)cc1` (stereo not given), the IC50 lay within 50 to 500 nM.

For the compound `CN(CC(N)c1ccc(C(=O)Nc2ccncc2)cc1)C(=O)C1(c2cccs2)CC1` (stereo not given), the IC50 is 500 to 5000 nM.

As for `N#Cc1ccc(C(=O)NCC(N)c2ccc(C(=O)Nc3ccncc3)cc2)cc1` (stereo not given), the IC50 lay in the range of 500 to 5000 nM.

Regarding `CN(CC(N)c1ccc(C(=O)Nc2ccncc2)cc1)C(=O)Cc1ccc(Cl)cc1` (stereo not given), the IC50 lay within 500 to 5000 nM.

For `CC(C)C(C(=O)N1CCCC1C(N)c1ccc(C(=O)Nc2ccncc2)cc1)c1ccc(Cl)cc1` (stereo not given), the IC50 was 500 to 5000 nM.

As to `NC(CC(=O)NNC(=O)c1ccco1)c1ccc(C(=O)Nc2ccncc2)cc1` (stereo not given), the IC50 lay in the range of 50 to 500 nM.

Compound `NC(CNC(=O)C1CCOc2ccc(F)cc21)c1ccc(C(=O)Nc2ccncc2)cc1` (stereo not given) yielded an IC50 of 50 to 500 nM.

With `CN(CC(N)c1ccc(C(=O)Nc2ccncc2)cc1)C(=O)C1CCOc2ccccc21` (stereo not given), the IC50 lay in the range of 500 to 5000 nM.

On to `NC(c1ccc(C(=O)Nc2ccncc2)cc1)C1CCCN1C(=O)Cc1c(Cl)cccc1Cl` (stereo not given), for which the IC50 was 500 to 5000 nM.

For `COc1cccc(CC(=O)NCC(N)c2ccc(C(=O)Nc3ccncc3)cc2)c1` (stereo not given), the IC50 lay in the range of 50 to 500 nM.

For the compound `NC(CNC(=S)Nc1ccccc1)c1ccc(C(=O)Nc2ccncc2)cc1` (stereo not given), the IC50 fell in the range of 50 to 500 nM.

Compound `NC(CNC(=O)c1csc(-c2ccccc2)n1)c1ccc(C(=O)Nc2ccncc2)cc1` (stereo not given) showed an IC50 of 500 to 5000 nM.

`CN(Cc1ccccc1)C(=O)CC(N)c1ccc(C(=O)Nc2ccncc2)cc1` (stereo not given) registered an IC50 of 50 to 500 nM.

The compound `NC(CC(=O)NCCc1cccc(F)c1)c1ccc(C(=O)Nc2ccncc2)cc1` (stereo not given) registered an IC50 of 500 to 5000 nM.

Compound `NC(CC(=O)NCc1ccc(F)cc1)c1ccc(C(=O)Nc2ccncc2)cc1` (stereo not given) had an IC50 of 50 to 500 nM.

Compound `NC(CNC(=O)c1ccccc1Nc1ccccc1)c1ccc(C(=O)Nc2ccncc2)cc1` (stereo not given) registered an IC50 of 500 to 5000 nM.
